In the test the test system is HiBiT-HSD17β13 fusion protein (N-terminal HiBiT-tagged HSD17β13 isoform D) in Huh7 HiBiT-HSD17β13 OE cells. The test is described as follows: Whole-cell Huh7-HSD17B13 HiBiT assay (degrader potency and maximal efficacy, luminescence readout). The following applies: 24 hour incubation, geometric mean, * = geometric mean for all forms tested (parent and salt forms); for DC50: read-out: Huh7_HIBIT-HSD17β13_DC50 GMean DC50; for Huh7_HIBIT-HSD17β13_DC50 GMean Asymptote Maximum: max. concentration 1 μM. It is filed as cell-based, human. In short, it runs like this: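 Luminescence from lytic HiBiT detection tracked residual HiBiT-HSD17β13 (isoform D, N-terminal tag) in a stable Huh7 overexpressing clone after 24 h compound treatment at 37° C, 11 concentrations up to 1 μM final. Percent effect used DMSO (zero) and parental Huh7 (high) wells; four-parameter fit gave 50% degradation; viability checked by CellTiter-Glo.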
(The HiBiT peptide binds its large partner to form an active luciferase.)

Counter-ions that a name gives are not always drawn.

This note sets out measurements from patent US20240238425A1, “HSD17B13 Inhibitors and/or Degraders” (Pfizer Inc., priority 2022, published 2024).

As a reminder, the DC50 is the concentration at which degradation of the target reaches its halfway point. Take `O=C1CCC(N2Cc3c(OCc4ccc(CN5CCC(CCCOc6ccc(-c7noc([C@]89CC[C@](CNC(=O)c%10cc(F)c(O)c(F)c%10F)(CC8)CC9)n7)nn6)CC5)cc4)cccc3C2=O)C(=O)N1` (mixture of isomers) [Example 36, N-({4-[3-(6-{3-[1-({4-[{{2-[(3RS)-2,6-dioxopiperidin-3-yl]-1-oxo-2,3-dihydro-1H-isoindol-4-yl}oxy)methyl]phenyl}methyl)piperi-din-4-yl]propoxy}pyridazin-3-yl)-1,2,4-oxadiazol-5-yl]bicyclo[2.2.2]octan-1-yl}methyl)-2,3,5-trifluoro-4-hydroxybenzamide, trifluoroacetate salt]: the DC50 was found to be 2.2 nM and the “Huh7_HIBIT-HSD17β13_DC50 GMean Asymptote Maximum” value was determined as 86%.
The matching figures for `Cn1c(=O)n(C2CCC(=O)NC2=O)c2ccc(CC3CCN(c4ncc(-c5ccc6cn([C@H]7CC[C@H](CNC(=O)c8cc(F)c(O)c(F)c8F)CC7)nc6c5)cn4)CC3)cc21` (mixture of isomers) [Example 46, N-{[(1r,4r)-4-(6-{2-[4-({1-[(3RS)-2,6-dioxopiperidin-3-yl]-3-methyl-2-oxo-2,3-dihydro-1H-benzimidazol-5-yl}methyl)piperidin-1-yl]pyrimidin-5-yl}-2H-indazol-2-yl)cyclohexyl]methyl}-2,3,5-trifluoro-4-hydroxybenzamide, trifluoroacetate salt]: 0.57 nM and 84%.
With `Cl.Cn1c(=O)n(C2CCC(=O)NC2=O)c2ccc(CN3CCN(c4ncc(-c5ccc6cn([C@H]7CC[C@H](CNC(=O)c8cc(F)c(O)c(F)c8F)CC7)nc6c5)cn4)CC3)cc21` (mixture of isomers) [Example 26, N-{[(1r,4r)-4-(6-{2-[4-({1-[(3RS)-2,6-dioxopiperidin-3-yl]-3-methyl-2-oxo-2,3-dihydro-1H-benzimidazol-5-yl}methyl)piperazin-1-yl]pyrimidin-5-yl}-2H-indazol-2-yl)cyclohexyl]methyl}-2,3,5-trifluoro-4-hydroxybenzamide, hydrochloride salt], the DC50 amounted to 0.5 nM and the “Huh7_HIBIT-HSD17β13_DC50 GMean Asymptote Maximum” value was 82%.
Turning to `COc1nc(-c2ccc3cn([C@H]4CC[C@H](CNC(=O)c5cc(F)c(O)c(F)c5F)CC4)nc3c2)nc2c1CN(CCCc1ccc3c(c1)n(C)c(=O)n3C1CCC(=O)NC1=O)C2` (mixture of isomers) [Example 126, N-{[(1r,4r)-4-{6-[6-(3-{1-[(3RS)-2,6-dioxopiperidin-3-yl]-3-methyl-2-oxo-2,3-dihydro-1H-benzimidazol-5-yl}propyl)-4-methoxy-6,7-dihydro-5H-pyrrolo[3,4-d]pyrimidin-2-yl]-2H-indazol-2-yl}cyclohexyl]methyl}-2,3,5-trifluoro-4-hydroxybenzamide, trifluoroacetate salt], the DC50 is 0.36 nM and the “Huh7_HIBIT-HSD17β13_DC50 GMean Asymptote Maximum” value is 84%.
On to `Cn1c(=O)n(C2CCC(=O)NC2=O)c2ccc(CCCN3CCN(c4ccc(-c5ccc6cn([C@H]7CC[C@H](CNC(=O)c8cc(F)c(O)c(F)c8F)CC7)nc6c5)cn4)CC3)cc21` (mixture of isomers) [Example 92, N-{[(1r,4r)-4-(6-{6-[4-(3-{1-[(3RS)-2,6-dioxopiperidin-3-yl]-3-methyl-2-oxo-2,3-dihydro-1H-benzimidazol-5-yl}propyl)piperazin-1-yl]pyridin-3-yl}-2H-indazol-2-yl)cyclohexyl]methyl}-2,3,5-trifluoro-4-hydroxybenzamide], for which the DC50 came out at 0.4 nM and the “Huh7_HIBIT-HSD17β13_DC50 GMean Asymptote Maximum” value is given as 87%.
As for `Cn1c(=O)n(C2CCC(=O)NC2=O)c2ccc(CCCN3CCN(c4ccc5nn(C6CCC(CNC(=O)c7cc(F)c(O)c(F)c7F)CC6)cc5n4)CC3)cc21.O=CO` (racemic) [Example 16, N-{[(1r,4r)-4-{5-[4-(3-{1-[(3RS)-2,6-Dioxopiperidin-3-yl]-3-methyl-2-oxo-2,3-dihydro-1H-benzimidazol-5-yl}propyl)piperazin-1-yl]-2H-pyrazolo[4,3-b]pyridin-2-yl}cyclohexyl]methyl}-2,3,5-trifluoro-4-hydroxybenzamide, formate salt], the DC50 was determined as 0.42 nM and the “Huh7_HIBIT-HSD17β13_DC50 GMean Asymptote Maximum” value came out at 82%.
The matching figures for `Cl.Cn1c(=O)n(C2CCC(=O)NC2=O)c2ccc(CCCN3CCN(c4ncc(-c5ccc6cn([C@H]7CC[C@H](CNC(=O)c8cc(F)c(O)c(F)c8F)CC7)nc6c5)cn4)CC3)cc21` (mixture of isomers) [Example 24, N-{[(1r,4r)-4-(6-{2-[4-(3-{1-[(3RS)-2,6-dioxopiperidin-3-yl]-3-methyl-2-oxo-2,3-dihydro-1H-benzimidazol-5-yl}propyl)piperazin-1-yl]pyrimidin-5-yl}-2H-indazol-2-yl)cyclohexyl]methyl}-2,3,5-trifluoro-4-hydroxybenzamide, hydrochloride salt]: 0.18 nM and 88* %.
In the case of `Cn1c(=O)n(C2CCC(=O)NC2=O)c2ccc(CCN3Cc4ccc(-c5ccc6cn([C@H]7CC[C@H](CNC(=O)c8cc(F)c(O)c(F)c8F)CC7)nc6c5)cc4C3)cc21` (mixture of isomers) [Example 106, N-{[(1r,4r)-4-{6-[2-(2-{1-[(3RS)-2,6-dioxopiperidin-3-yl]-3-methyl-2-oxo-2,3-dihydro-1H-benzimidazol-5-yl}ethyl)-2,3-dihydro-1H-isoindol-5-yl]-2H-indazol-2-yl}cyclohexyl]methyl}-2,3,5-trifluoro-4-hydroxybenzamide, trifluoroacetate salt], the DC50 turned out to be 0.22 nM and the “Huh7_HIBIT-HSD17β13_DC50 GMean Asymptote Maximum” value was 80%.
For the molecule `Cn1c(=O)n(C2CCC(=O)NC2=O)c2ccc(CCCN3CC(n4cc(-c5ccc6cn([C@H]7CC[C@H](CNC(=O)c8cc(F)c(O)c(F)c8F)CC7)nc6c5)cn4)C3)cc21` (mixture of isomers) [Example 33, N-{[(1r,4r)-4-(6-{1-[1-(3-{1-[(3RS)-2,6-dioxopiperidin-3-yl]-3-methyl-2-oxo-2,3-dihydro-1H-benzimidazol-5-yl}propyl)azetidin-3-yl]-1H-pyrazol-4-yl}-2H-indazol-2-yl)cyclohexyl]methyl}-2,3,5-trifluoro-4-hydroxybenzamide], the DC50 stood at 0.62 nM and the “Huh7_HIBIT-HSD17β13_DC50 GMean Asymptote Maximum” value is 86%.
Consider `Cc1ccc(C(=O)N2CCC3(CC2)C[C@H](N2CCN(c4ncc(-c5ccc6cn([C@H]7CC[C@H](CNC(=O)c8cc(F)c(O)c(F)c8F)CC7)nc6c5)cn4)CC2)CO3)cc1N1CCC(=O)NC1=O` [Example 73, N-{[(1r,4r)-4-{6-[2-(4-{(3S)-8-[3-(2,4-dioxo-1,3-diazinan-1-yl)-4-methylbenzoyl]-1-oxa-8-azaspiro[4.5]decan-3-yl}piperazin-1-yl)pyrimidin-5-yl]-2H-indazol-2-yl}cyclohexyl]methyl}-2,3,5-trifluoro-4-hydroxybenzamide, trifluoroacetate salt], for which the DC50 came to 0.96 nM and the “Huh7_HIBIT-HSD17β13_DC50 GMean Asymptote Maximum” value was 76%.
Regarding `Cc1ccc(C(=O)N2CCC(CN3CCN(c4ncc(-c5ccc6cn([C@H]7CC[C@H](CNC(=O)c8cc(F)c(O)c(F)c8F)CC7)nc6c5)cn4)CC3)CC2)cc1N1CCC(=O)NC1=O` [Example 45, N-{[(1r,4r)-4-(6-{2-[4-({1-[3-(2,4-dioxo-1,3-diazinan-1-yl)-4-methylbenzoyl]piperidin-4-yl}methyl)piperazin-1-yl]pyrimidin-5-yl}-2H-indazol-2-yl)cyclohexyl]methyl}-2,3,5-trifluoro-4-hydroxybenzamide, trifluoroacetate salt], the DC50 was determined as 3.1 nM and the “Huh7_HIBIT-HSD17β13_DC50 GMean Asymptote Maximum” value turned out to be 76%.
